Laboratory results from ChEMBL document CHEMBL5331075, “New antileishmanial quinoline linked isatin derivatives targeting DHFR-TS and PTR1: Design, synthesis, and molecular modeling studies” (Eur J Med Chem, 2023).

Experiments:
[1] = tested on: Leishmania major; assay: Antileishmanial activity against Leishmania major amastigotes assessed as parasite growth inhibition incubated for 72 hrs by resazurin dye based assay; type: functional, organism-based
[2] = tested on: Leishmania major; assay: Antileishmanial activity against Leishmania major promastigotes assessed as parasite growth inhibition incubated for 24 hrs by Alamar blue staining based assay; type: functional, organism-based
[3] = Selectivity index, ratio of CC50 for cytotoxicity against African green monkey Vero cells to IC50 for antileishmanial activity against Leishmania major amastigotes assessed as parasite growth inhibition; type: toxicity, cell-based; conditions: read-out: Ratio CC50/IC50
[4] = tested on: Leishmania major; assay: Antileishmanial activity against Leishmania major promastigotes assessed as parasite growth inhibition at 20 uM incubated for 48 hrs in presence of folinic acid relative to control; type: functional; design: scale not given: the % may be the effect or the level left
[5] = Cytotoxicity against African green monkey Vero cells assessed as reduction in cell viability incubated for 72 hrs by crystal violet staining based analysis; type: toxicity; conditions: chlorocebus sabaeus
[6] = tested on: Leishmania major; assay: Antileishmanial activity against Leishmania major promastigotes assessed as parasite growth inhibition at 100 uM incubated for 48 hrs in presence of folinic acid relative to control; type: functional; design: scale not given: the % may be the effect or the level left
[7] = tested on: Leishmania major; assay: Antileishmanial activity against Leishmania major promastigotes assessed as parasite growth inhibition at 100 uM incubated for 48 hrs in presence of folic acid relative to control; type: functional; design: scale not given: the % may be the effect or the level left
[8] = tested on: Leishmania major; assay: Antileishmanial activity against Leishmania major promastigotes assessed as parasite growth inhibition at 20 uM incubated for 48 hrs in presence of folic acid relative to control; type: functional; design: scale not given: the % may be the effect or the level left
[9] = tested on: Leishmania major; assay: Antileishmanial activity against Leishmania major promastigotes assessed as parasite growth inhibition incubated for 48 hrs; type: functional; design: scale not given: the % may be the effect or the level left

Row | Compound | IC50 [1] [µM] | IC50 [2] [µM] | also measured
1 | CCCN1C(=O)/C(=N/Nc2ccnc3cc(Cl)ccc23)c2cc(Cl)ccc21 | 4.99 | 2.99 | 
2 | CCN1C(=O)/C(=N\Nc2ccnc3cc(Cl)ccc23)c2ccccc21 | 5.85 | 3.45 | 
3 | O=C1Nc2ccc(F)cc2/C1=N/Nc1ccnc2cc(Cl)ccc12 | 0.721 | 0.557 | selectivity ratio [3]: 255; Activity [4]: 84%; CC50 at 72 h [5]: 184 µM; Activity [6]: 94%; Activity [7]: 90%; Activity [8]: 80%; Activity [9]: 25%
4 | O=C1Nc2c(F)cccc2/C1=N/Nc1ccnc2cc(Cl)ccc12 | 1.1 | 1.1 | 
5 | COc1cc(Cc2cnc(N)nc2N)cc(OC)c1OC [TRIMETHOPRIM] |  |  | Activity [7]: 99%; Activity [9]: 71%
6 | O=C1Nc2ccc(Br)cc2/C1=N/Nc1ccnc2cc(Cl)ccc12 | 0.604 | 0.508 | selectivity ratio [3]: 258; Activity [4]: 76%; CC50 at 72 h [5]: 156 µM; Activity [6]: 91%; Activity [7]: 87%; Activity [8]: 74%; Activity [9]: 21%
7 | O=C1Nc2ccc(OC(F)(F)F)cc2/C1=N/Nc1ccnc2cc(Cl)ccc12 | 0.944 | 0.668 | selectivity ratio [3]: 326; Activity [4]: 96%; CC50 at 72 h [5]: 308 µM; Activity [6]: 98%; Activity [7]: 93%; Activity [8]: 86%; Activity [9]: 28%
8 | O=C1Nc2ccccc2/C1=N/Nc1ccnc2cc(Cl)ccc12 | 2.45 | 0.986 | 
9 | CN1C(=O)/C(=N\Nc2ccnc3cc(Cl)ccc23)c2ccccc21 | 3.49 | 1.88 | 
10 | CC(C)CN1C(=O)/C(=N/Nc2ccnc3cc(Cl)ccc23)c2cc(Cl)ccc21 | 6.03 | 3.5 | 
11 | CC(C)CN1C(=O)/C(=N/Nc2ccnc3cc(Cl)ccc23)c2cc(Br)ccc21 | 6.86 | 4.11 | 
12 | O=C1/C(=N/Nc2ccnc3cc(Cl)ccc23)c2ccccc2N1Cc1ccccc1 | 6.88 | 3.97 | 
13 | CN1C(=O)/C(=N/Nc2ccnc3cc(Cl)ccc23)c2cc(Cl)ccc21 | 3.25 | 1.87 | 
14 | CN1C(=O)/C(=N/Nc2ccnc3cc(Cl)ccc23)c2cc(Br)ccc21 | 3.46 | 1.74 | 
15 | O=C1/C(=N/Nc2ccnc3cc(Cl)ccc23)c2cc(Cl)ccc2N1Cc1ccccc1 | 5.3 | 4 | 
16 | CCCN1C(=O)/C(=N/Nc2ccnc3cc(Cl)ccc23)c2ccccc21 | 5.49 | 3.16 | 
17 | O=C1/C(=N/Nc2ccnc3cc(Cl)ccc23)c2cc(Br)ccc2N1Cc1ccccc1 | 8.29 | 5.95 | 
18 | O=C1Nc2ccc(Cl)cc2/C1=N/Nc1ccnc2cc(Cl)ccc12 | 1.26 | 0.67 | 
19 | CC(C)CN1C(=O)/C(=N\Nc2ccnc3cc(Cl)ccc23)c2ccccc21 | 3.99 | 2.67 | 
20 | CCN1C(=O)/C(=N/Nc2ccnc3cc(Cl)ccc23)c2cc(Cl)ccc21 | 4.34 | 2.96 | 
21 | CCN1C(=O)/C(=N/Nc2ccnc3cc(Cl)ccc23)c2cc(Br)ccc21 | 5.12 | 3.21 | 
